Source: patent publication US12594268B2, “Methods of treating Fabry disease in patients having a mutation in the GLA gene” (Amicus Therapeutics, Inc., priority 2018, dated 2026)
Numbering of substitutions follows the chain as printed.

Columns and labels:
Type in all cases: cell-based
[1] = target: T1, α-Gal A mutant form N228D (Homo sapiens, UniProt P06280, N228D); assay: α-Gal A activity in lysates of transfected HEK-293 cells, N228D
T1 construct: expressed in transfected cells; host or cells: HEK-293
T1 sequence (P06280 32-429 N228D): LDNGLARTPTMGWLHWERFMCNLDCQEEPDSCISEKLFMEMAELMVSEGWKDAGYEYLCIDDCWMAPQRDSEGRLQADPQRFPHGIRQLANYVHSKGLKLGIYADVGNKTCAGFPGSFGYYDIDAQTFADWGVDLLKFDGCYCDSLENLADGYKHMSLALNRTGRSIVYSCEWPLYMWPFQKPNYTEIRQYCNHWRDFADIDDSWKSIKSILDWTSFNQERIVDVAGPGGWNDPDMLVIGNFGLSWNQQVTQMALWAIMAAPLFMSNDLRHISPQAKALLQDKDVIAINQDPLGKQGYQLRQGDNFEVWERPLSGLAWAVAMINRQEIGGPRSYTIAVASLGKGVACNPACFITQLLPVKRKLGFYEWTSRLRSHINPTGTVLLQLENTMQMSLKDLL
Protocol: (§1) Baseline and 10 μM migalastat α-Gal A activity: Differences in the α-Gal A activity between lysates incubated in the absence and presence of 10 μM migalastat were determined using a one-tailed, Mann Whitney U test; an increase at 10 μM migalastat with a p<0.05 was considered significant.
(§2) 10 μM migalastat α-Gal A activity (% WT)=(α-Gal A activity in mutant transfected cell lysates incubated with 10 μM migalastat÷α-Gal A activity in wild-type transfected cell lysates without migalastat)*100.
(§3) Absolute increase (% WT)=is the 10 μM migalastat α-Gal A activity (% WT) minus the baseline α-Gal A activity (% WT).
(§4) Relative increase is the 10 μM migalastat α-Gal A activity in mutant transfected cell lysates÷baseline α-Gal A activity in mutant transfected cell lysates incubated without migalastat.

α-Gal A mutant form G35A = target: T2, α-Gal A mutant form G35A (Homo sapiens, UniProt P06280, G35A); assay: α-Gal A activity in lysates of transfected HEK-293 cells, G35A
T2 construct: expressed in transfected cells; host or cells: HEK-293
T2 sequence (P06280 32-429 G35A): T1 sequence (P06280 32-429 N228D) with G4A, D197N
Protocol: as §1, §2, §3, §4

α-Gal A mutant form G80V = target: T3, α-Gal A mutant form G80V (Homo sapiens, UniProt P06280, G80V); assay: α-Gal A activity in lysates of transfected HEK-293 cells, G80V
T3 construct: expressed in transfected cells; host or cells: HEK-293
T3 sequence (P06280 32-429 G80V): T1 sequence (P06280 32-429 N228D) with G49V, D197N
Protocol: as §1, §2, §3, §4

[2] = target: T4, α-Gal A mutant form I239M (Homo sapiens, UniProt P06280, I239M); assay: α-Gal A activity in lysates of transfected HEK-293 cells, I239M
T4 construct: expressed in transfected cells; host or cells: HEK-293
T4 sequence (P06280 32-429 I239M): T1 sequence (P06280 32-429 N228D) with D197N, I208M
Protocol: as §1, §2, §3, §4

[3] = target: T5, α-Gal A mutant form R112L (Homo sapiens, UniProt P06280, R112L); assay: α-Gal A activity in lysates of transfected HEK-293 cells, R112L
T5 construct: expressed in transfected cells; host or cells: HEK-293
T5 sequence (P06280 32-429 R112L): T1 sequence (P06280 32-429 N228D) with R81L, D197N
Protocol: as §1, §2, §3, §4

[4] = 10 μM migalastat minus baseline
[5] = 10 μM migalastat ÷ baseline activity
[6] = HEK-293 lysates, 10 μM migalastat, 5 days, mean ± SEM

Question: With `OC[C@H]1NC[C@H](O)[C@@H](O)[C@H]1O` [migalastat, (2R,3S,4R,5S)-2-(hydroxymethyl) piperdine-3,4,5-triol] as the compound, how does the “Absolute increase (% WT)” value [1, 4] read?
Answer: The value was 48.2 % WT.

Question: What about the Relative increase [1, 5] of the same compound?
Answer: Its Relative increase is 4.12.

Question: What about the “10 μM migalastat α-Gal A activity” value [1, 6] of the same compound?
Answer: Its value is 25816 ± 2273 nmol/mg/h.

Question: And the “10 μM migalastat α-Gal A activity (% WT)” value [1, 6]?
Answer: The value was 63.2 ± 5.4 % WT.

Question: What about the “Absolute increase (% WT)” value (α-Gal A mutant form G35A; [4]) of the same compound?
Answer: Its value is 31.0 % WT.

Question: And the Relative increase (α-Gal A mutant form G35A; [5])?
Answer: The Relative increase was 1.61.

Question: And the “10 nM migalastat α-Gal A activity” value (α-Gal A mutant form G35A; HEK-293 lysates, 10 nM migalastat as printed, 5 days, mean ± SEM)?
Answer: Its value is 31694 ± 1949 nmol/mg/h.

Question: And the “10 μM migalastat α-Gal A activity (% WT)” value (α-Gal A mutant form G35A; [6])?
Answer: The value was 82.1 ±5.6 % WT.

Question: What about the “Absolute increase (% WT)” value (α-Gal A mutant form G80V; [4]) of the same compound?
Answer: The value was 4.3 % WT.

Question: And the Relative increase (α-Gal A mutant form G80V; [5])?
Answer: The Relative increase was 3.18.

Question: What about the “10 μM migalastat α-Gal A activity” value (α-Gal A mutant form G80V; [6]) of the same compound?
Answer: The value was 2434 ± 333 nmol/mg/h.

Question: What about the “10 μM migalastat α-Gal A activity (% WT)” value (α-Gal A mutant form G80V; [6]) of the same compound?
Answer: The value was 6.4 ± 0.6 % WT.

Question: And the “Absolute increase (% WT)” value [2, 4]?
Answer: The value was 55.5 % WT.

Question: And the Relative increase [2, 5]?
Answer: Its Relative increase is 5.12.

Question: And the “10 μM migalastat α-Gal A activity” value [2, 6]?
Answer: The value was 24827 ± 3056 nmol/mg/h.

Question: What about the “10 μM migalastat α-Gal A activity (% WT)” value [2, 6] of the same compound?
Answer: The value was 69.3 ± 6.9 % WT.

Question: What about the “Absolute increase (% WT)” value ([3]; 10 μM migalastat minus baseline (baseline BLD)) of the same compound?
Answer: Its value is 7.5 % WT.

Question: And the “10 μM migalastat α-Gal A activity (% WT)” value [3, 6]?
Answer: The value was 7.5 ± 1.1 % WT.

Question: And the “10 μM migalastat α-Gal A activity” value ([3]; HEK-293 lysates, 10 μM migalastat, 5 days, mean ± SEM, baseline BLD)?
Answer: The value was 2364 ± 296 nmol/mg/h.
